In patent US5215982A, “Cephem compounds” (Fujisawa Pharmaceutical Co., Ltd., priority 1989, dated 1993) one finds MIC data, which are given here for one compound.

The test concerns E. coli 31. Description: In vitro antibacterial activity, two-fold agar-plate dilution method (MIC). The test is classed as cell-based. The following applies: Escherichia coli, 10^6 viable cells per ml, heart infusion agar, 37° C., 20 hours, read-out: MIC (minimal inhibitory concentration). The protocol: Now in order to show the utility of the object compound (I), the test data on MIC (minimal inhibitory concentration) of a representative compound of the compound (I) are shown in the following.
In vitro antibacterial activity was determined by the two-fold agar-plate dilution method as described below.
One loopful of an overnight culture of each test strain in Trypticase-soy broth (10^6 viable cells per ml) was streaked on heart infusion agar (HI-agar) containing graded concentrations of representative test compound, and the minimal inhibitory concentration (MIC) was expressed in terms of μg/ml after incubation at 37° C. for 20 hours.

Turning to `CON=C(C(=O)NC1C(=O)N2C(C(=O)[O-])=C(C[n+]3ccc4[nH]ccn43)CSC12)c1nsc(N)n1` (stereo not drawn) [Test Compound (1), 7β-[2-(5-Amino-1,2,4-thiadiazol-3-yl)-2-methoxyiminoacetamido]-3-[5-(1H-imidazo[1,2-b]pyrazolio)]methyl-3-cephem-4-carboxylate (syn isomer)], the MIC was not above 0.025 µg/mL.
